Marks after values point to notes of the source that are not given here.
Columns and labels:
T2D model mice [1] = experiment: Glucose tolerance (OGTT) in T2D model mice; type: in vivo, C57bL/6 mice; details: before sacrifice
T2D model mice [2] = experiment: Fasting blood glucose (FBG) in T2D model mice; type: in vivo, C57bL/6 mice
T2D model mice [3] = experiment: Body weight change of T2D model mice treated by gavage for 2 months; type: in vivo, C57bL/6 mice; details: intragastric treatment
T2D model mice [4] = experiment: Serum blood lipids in T2D model mice at end of experiment; details: after 2 months of treatment

With CN(C)C(=N)N=C(N)N [Metformin, metformin] the “blood glucose in glucose tolerance test (OGTT)” value (“blood glucose … (OGTT)” for short) (T2D model mice [1]; 0 min after glucose gavage) was 9.2 mmol/L, the “blood glucose … (OGTT)” value (T2D model mice [1]; 30 min after glucose gavage) was 19.5 mmol/L and the “blood glucose … (OGTT)” value (T2D model mice [1]; 60 min after glucose gavage) was 16.1 mmol/L. For the same compound, the “blood glucose … (OGTT)” value (T2D model mice [1]; 90 min after glucose gavage) was 10.9* mmol/L, the “blood glucose … (OGTT)” value (T2D model mice [1]; 120 min after glucose gavage) was 10.1* mmol/L and the “blood glucose … (OGTT)” value (T2D model mice [1]; 120 min after glucose gavage, listed as metformin) was 9.8 mmol/L. The fasting blood glucose (T2D model mice [2]; week five) was 14.6 mmol/L, the fasting blood glucose (T2D model mice [2]; week nine) was 9.8** mmol/L and the fasting blood glucose (T2D model mice [2]; week one) was 16.7 mmol/L. The fasting blood glucose (T2D model mice [2]; week seven) was 12.1* mmol/L, the fasting blood glucose (T2D model mice [2]; week three) was 15.8 mmol/L and the body weight (T2D model mice [3]; 1 week) was 21.54 g. The body weight (T2D model mice [3]; 3 weeks) was 23.42 g, the body weight (T2D model mice [3]; 5 weeks) was 25.23 g and the body weight (T2D model mice [3]; 7 weeks) was 26.6 g. For the same compound, the body weight (T2D model mice [3]; 9 weeks) was 27.49* g, the “HDLC (high-density lipoprotein)” value (T2D model mice [4]) was 3.023* mmol/L and the “LDLC (low density lipoprotein)” value (T2D model mice [4]) was 1.533* mmol/L. The “TC (total cholesterol)” value (T2D model mice [4]) was 5.923 mmol/L and the “TG (triglyceride)” value (T2D model mice [4]) was 1.565 mmol/L.
